Assays:
[1] = tested on: CIC-DUX4 target genes like ETV4 and CCNE1 in ES cell lines (AF573, TC71, A673); experiment: RT-qPCR for CIC-DUX4 target genes in Ewing sarcoma cell lines; assay type: cell-based; conditions: 0.03 μM, 18 hours
Protocol: (§1) RNA was extracted using an RNA extraction kit (Zymo) and cDNA was made using 0.5 μg total RNA with oligo-dT primer and Verso cDNA Synthesis Kit (Thermo Scientific) following the manufacturer's instructions. qPCRs were performed by using Premix Ex Taq (Probe qPCR, Takara) or SYBR-green. Gene expression levels were normalized to that of GAPDH and analyzed with 7500 System Software using the ACT method (Applied Biosystems). RNA-seq library preparation was done with 500 ng total RNA from NCC-CDS-X1 cells treated for 4 or 24 hours with iP300w (0.3 μM) using the Swift Rapid RNA Library Kit (SwiftBioscience). 36 base paired-end sequencing was performed on an Illumina NextSeq instrument at the University of Minnesota Genomics Center.
To determine whether iP300w was particularly active against CDS cells, vis-à-vis other related cancer cell lines, viability of 3 different Ewing sarcoma (ES) cell lines and several different immortalized cell lines treated with iP300w were compared. […] Furthermore, gene expression analyses confirmed the specificity of iP300w to CDS.

[2] = tested on: NCC-CDS-X1 cells (CIC-DUX4 sarcoma cell line); experiment: Cell viability (ATP) assay in NCC-CDS-X1 cells; assay type: cell-based, human
Protocol: (§2) Basal media were purchased from HyClone, fetal bovine serum (FBS) was from PeakSerum (Ps-FB3, lot 293Q16), and Glutamax (Glu) and Penicillin/Streptomycin (P/S) were from GIBCO. NCC-CDS-X1 (CIC-DUX4 sarcoma cell line, a generous gift from Tadashi Kondo) cell line was cultured in RPMI with 10% FBS, Glu and P/S, Kitra-SRS (CIC-DUX4 sarcoma cell line, a generous gift from Hidetatsu Otani), 3T3, 293T and C2C12 cell lines were cultured in DMEM/10% FBS/Glu/P/S. The immortalized human myoblast LHCN-M2 cell line was cultured in proliferation medium: F10 supplemented with 20% FBS, 2-mercaptoethanol 1× (GIBCO), 10^−9 M dexamethasone (Sigma), 10 ng/mL bFGF (Peprotech), and Glu/P/S. All cells were cultured at 37° C. in a 5% CO2 atmosphere.
(§3) Cell lines were plated in a 96 well dish (1×10^5 cells/well), and the following day were treated with iP300w or its stereoisomers. ATP assays were performed using CellTiter-Glo® Luminescent Cell Viability Assay (Promega) according to the manufacturer's instructions. Luminescence was analyzed on POLARstar Optima Microplate Reader (BMG Labtech, Offenburg, Germany).
The activity of the various iP300w stereoisomers against NCC-CDS-X1 cells was evaluated. Cultures were treated with serial dilutions, ranging from 0.003 μM to 3.0 μM, for up to 96 hours. In cells treated with iP300w, a significant decrease in cell viability was evident at the lowest concentration (0.003 μM) at 48 and 96 hours (FIG. 3A). The effect was dose- and time-dependent. […] (FIG. 2B and FIG. 9).

NCC-CDS-X1 cells = experiment: EdU incorporation (FACS) in NCC-CDS-X1 cells; assay type: cell-based, human
Protocol: EdU labeling and visualization was done using Click-iT® EdU Flow Cytometry Assay Kit (Thermo Fisher Scientific). Briefly, 1×10^5 NCC-CDS-X1 cells were plated in each well of a 24-well plate. The following day, continual treatment with 0.3 μM iP300w was initiated. For the pulse experiment, cells were treated with iP300w for 4 or 24 hours and analyzed 24 hours later. Cells were cultured with EdU ([…]) in the last 4 hours of the experiment, and samples were prepared for analyses according to the manufacture's instruction. FACS analyses were performed on a BD FACSAria instrument and data was analyzed using FlowJo (BD Biosciences). Experiments were performed on at least three biological replicates.

NCC-CDS-X1 spheres = experiment: Spheroid assay; assay type: cell-based, human; conditions: day 4 and 8
Protocol: For spheroid formation assays, 2.5×10^4 NCC-CDS-X1 cells were seeded into 96-well plates (96-well Clear Flat Bottom Ultra-Low Attachment Microplate; Corning, Inc., Corning, NY, USA) in MEM/10% FBS media. Treatment with iP300w was started two days after the plating when the cells formed compact spheres.

[3] = tested on: CIC-DUX4 induced transcriptome in NCC-CDS-X1 cells; experiment: RNA-seq transcriptional profile of NCC-CDS-X1 cells; assay type: cell-based, human; conditions: for number of genes changed by more than 10-fold / number of down-regulated genes (2-fold or greater) / number of up-regulated genes (2-fold or greater): 0.3 μM
Protocol: as §1
Paired-end Illumina sequencing reads were trimmed with TrimGalore (0.6.0) and transcript abundance was quantified using the human Gencode annotations (v34) using Salmon (v 1.2.1) with the GC-bias correction option. Counts were imported into R (v 4.0.2) using tximeta (v 1.6.3). Differentially expressed genes were identified with DESeq2 (v 1.28.1) and figures were made with the ComplexHeatmap (v 2.4.3), clusterProfiler (v 3.16.1) and ggplot2 (v 3.3.2) R packages. Sequencing reads and processed data have been deposited into GEO under the accession number GSE165729.
Next, global transcriptional profiles of NCC-CDS-X1 cells treated with iP300w were investigated. […] Among these differentially expressed genes, 170 and 244 were changed by more than 10-fold at 4 hour and 24 hours, respectively (FIG. 3A).

[4] = tested on: Kitra-SRS cells (CIC-DUX4 sarcoma cell line); experiment: Cell viability (ATP) assay in Kitra-SRS cells; assay type: cell-based, human; conditions: day 2
Protocol: as §2, §3
To evaluate the consequences of iP300w treatment of CDS cells, its effects on both monolayer cultures as well as 3D spheres was determined in both CDS cell lines. […] Using the cell viability assay, it was determined that 0.003 μM was the lowest effective concentration on day 2 in both lines (FIG. 2B).

CNC(=O)Cn1cc(-c2ccc3c(c2)[C@H](F)C[C@]32NC(=O)N(CC(=O)N(Cc3ccc(F)cc3)[C@@H](C)C(F)(F)F)C2=O)cn1 (single isomer, unassigned) [iP300w]
effect on basal expression of CIC-DUX4 target genes and cell cycle-related genes [1]: did not affect the basal expression | effective concentration on CDS cells ([2]; CDS cells, studies herein): 0.003 µM | lowest concentration with significant decrease in cell viability ([2]; NCC-CDS-X1, 48 and 96 hours, serial dilutions 0.003 to 3.0 μM): 0.003 µM | lowest effective concentration in cell viability assay ([2]; NCC-CDS-X1, day 2): 0.003 µM | activity relative to A-485 in the cell-based assays ([2]; cell-based assays): about two orders of magnitude more active than A-485 | proliferation rate after 4-hour pulse (NCC-CDS-X1 cells; 0.3 μM 4-hour pulse, measured 20 hours later): significantly reduced proliferation rate | cell cycle recovery after 24-hour pulse (NCC-CDS-X1 cells; 0.3 μM treated for 24 hours, 48 hours after the pulse): not able to restore the cell cycle | EdU labeling of proliferating cells (NCC-CDS-X1 cells; continual treatment 0.3 μM, 48 hours): virtually no cells were labelled | effect on CDS cell sphere formation and growth (NCC-CDS-X1 spheres): dose and time inhibitory effect | number of genes changed by more than 10-fold ([3]; 4 hour): 170 genes | number of down-regulated genes (2-fold or greater) ([3]; 4 hours post-treatment): 1182 genes | number of up-regulated genes (2-fold or greater) ([3]; 4 hours post-treatment): 872 genes | number of genes changed by more than 10-fold ([3]; 24 hours): 244 genes | number of down-regulated genes (2-fold or greater) ([3]; 24 hours post-treatment): 2042 genes | number of up-regulated genes (2-fold or greater) ([3]; 24 hours post-treatment): 1658 genes | effect on p21 (CDKN1A) expression ([3]; 24 hours): upregulated in the 24 hours | effect on key transformation-regulatory genes ETV1, ETV4 and CCNE1 ([3]; set of 165 CIC-DUX4 targets, 4 hours): significantly downregulated within 4 hours | effect on CIC-DUX4 targets ([3]; set of 165 CIC-DUX4 targets, 24 hours): vast majority of CIC-DUX4 targets to be downregulated | lowest effective concentration in cell viability assay [4]: 0.003 µM

Reference: patent US12383534B2, “Methods for treating cancer” (REGENTS OF THE UNIVERSITY OF MINNESOTA, priority 2021, dated 2025)
